In PubChem BioAssay (NCI):
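Each compound was tested at five concentrations against cells in 96-well plates for 48 hours. GI50 = concentration required for 50% inhibition of growth. The concentration for full growth arrest is given as TGI.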

Assays:
Assay in all cases: NCI anticancer screen, dose series, 48 h
[1] = tested on: CCRF-CEM leukemia
[2] = tested on: RPMI-8226 leukemia
[3] = tested on: HT29 colon
[4] = tested on: T-47D breast
[5] = tested on: MOLT-4 leukemia
[6] = tested on: K-562 leukemia
[7] = tested on: NCI/ADR-RES ovarian
[8] = tested on: LOX IMVI melanoma
[9] = tested on: HL-60(TB) leukemia
[10] = tested on: SR leukemia
[11] = tested on: SF-268 CNS
[12] = tested on: OVCAR-5 ovarian
[13] = tested on: IGROV1 ovarian
[14] = tested on: CAKI-1 renal
[15] = tested on: A549 NSCLC
[16] = tested on: BT-549 breast
[17] = tested on: HOP-62 NSCLC
[18] = tested on: HCT-116 colon
[19] = tested on: ACHN renal
[20] = tested on: SNB-19 CNS
[21] = tested on: SK-MEL-2 melanoma
[22] = tested on: HCT-15 colon
[23] = tested on: MCF7 breast
[24] = tested on: SK-MEL-5 melanoma
[25] = tested on: SF-295 CNS
[26] = tested on: NCI-H522 lung
[27] = tested on: A498 renal
[28] = tested on: SK-MEL-28 melanoma
[29] = tested on: UACC-257 melanoma
[30] = tested on: MDA-MB-231 breast
[31] = tested on: NCI-H226 lung
[32] = tested on: DU-145 prostate
[33] = tested on: HS 578T breast
[34] = tested on: EKVX NSCLC
[35] = tested on: MDA-MB-435
[36] = tested on: M14 melanoma
[37] = tested on: TK-10 renal
[38] = tested on: SN12C renal
[39] = tested on: COLO 205 colon
[40] = tested on: UO-31 renal
[41] = tested on: OVCAR-8 ovarian
[42] = tested on: MALME-3M melanoma
[43] = tested on: OVCAR-4 ovarian
[44] = tested on: UACC-62 melanoma
[45] = tested on: HCC-2998 colon
[46] = tested on: NCI-H23 lung
[47] = tested on: NCI-H460 lung
[48] = tested on: KM12 colon
[49] = tested on: 786-0 renal
[50] = tested on: SW-620 colon
[51] = tested on: SK-OV-3 ovarian
[52] = tested on: OVCAR-3 ovarian
[53] = tested on: HOP-92 NSCLC
[54] = tested on: U251 CNS
[55] = tested on: SNB-75 CNS
[56] = tested on: SF-539 CNS
[57] = tested on: PC-3 prostate

SMILES: C=C(C=O)[C@@H]1CC[C@]2(C)[C@H](C(=O)C=C3[C@H]4C[C@](C)(C(=O)OC)CC[C@]4(C)CC[C@]32C)[C@@]1(C)CCC#N
- GI50 [1]: 0.483 µM
- TGI [1]: > 100 µM
- GI50 [2]: 0.942 µM
- TGI [2]: 5.04 µM
- GI50 [3]: 1.12 µM
- TGI [3]: 2.87 µM
- GI50 [4]: 0.899 µM
- TGI [4]: > 100 µM
- GI50 [5]: 0.985 µM
- TGI [5]: > 100 µM
- GI50 [6]: 1.81 µM
- TGI [6]: > 100 µM
- GI50 [7]: 1.88 µM
- TGI [7]: 5.92 µM
- GI50 [8]: 1.34 µM
- TGI [8]: 2.7 µM
- GI50 [9]: 1.72 µM
- TGI [9]: 5.93 µM
- GI50 [10]: 1.02 µM
- TGI [10]: > 100 µM

SMILES: CC(Nc1c(C#N)cnc2ccc(-c3cncc(-c4n[nH]c(=O)o4)c3)cc12)c1ccccc1 (centres undefined)
- GI50 [11]: 2.62 µM
- TGI [11]: 9.88 µM
- GI50 [12]: 3.6 µM
- TGI [12]: 22.9 µM
- GI50 [1]: 3.7 µM
- TGI [1]: > 100 µM
- GI50 [13]: 1.55 µM
- TGI [13]: 4.77 µM
- GI50 [2]: 2.52 µM
- TGI [2]: > 100 µM
- GI50 [14]: 3.69 µM
- TGI [14]: 34.5 µM
- GI50 [15]: 3.64 µM
- TGI [15]: 29.2 µM
- GI50 [3]: 3.66 µM
- TGI [3]: 31.1 µM
- GI50 [16]: 1.35 µM
- TGI [16]: 5.48 µM
- GI50 [17]: 3.51 µM
- TGI [17]: 24.7 µM
- GI50 [18]: 2.65 µM
- TGI [18]: 8.75 µM
- GI50 [19]: 3.57 µM
- TGI [19]: 13.3 µM
- GI50 [20]: 2.77 µM
- TGI [20]: 14.6 µM
- GI50 [21]: 2.24 µM
- TGI [21]: 6.66 µM
- GI50 [22]: 3.06 µM
- TGI [22]: 13.2 µM
- GI50 [23]: 2.64 µM
- TGI [23]: 15.8 µM
- GI50 [24]: 1.68 µM
- TGI [24]: 3.07 µM
- GI50 [4]: 2.36 µM
- TGI [4]: > 100 µM
- GI50 [25]: 2.64 µM
- TGI [25]: 10.3 µM
- GI50 [26]: 3.31 µM
- TGI [26]: 16.2 µM
- GI50 [27]: 1.77 µM
- TGI [27]: 5.95 µM
- GI50 [28]: 3.4 µM
- TGI [28]: 14.7 µM
- GI50 [29]: 4.48 µM
- TGI [29]: 22.5 µM
- GI50 [30]: 2.15 µM
- TGI [30]: 9.65 µM
- GI50 [31]: 2.56 µM
- TGI [31]: 13.8 µM
- GI50 [32]: 2.98 µM
- TGI [32]: 15.6 µM
- GI50 [33]: 1.9 µM
- TGI [33]: 5.47 µM
- GI50 [34]: 2.46 µM
- TGI [34]: 8.59 µM
- GI50 [5]: 3.02 µM
- TGI [5]: 76 µM
- GI50 [35]: 3.59 µM
- TGI [35]: 29.5 µM
- GI50 [6]: 4.42 µM
- TGI [6]: > 100 µM
- GI50 [36]: 3.87 µM
- TGI [36]: 33.4 µM
- GI50 [37]: 3.83 µM
- TGI [37]: 44.6 µM
- GI50 [38]: 2.73 µM
- TGI [38]: 13.7 µM
- GI50 [39]: 2.85 µM
- TGI [39]: 14.8 µM
- GI50 [40]: 1.77 µM
- TGI [40]: 8.79 µM
- GI50 [41]: 3.63 µM
- TGI [41]: 32.9 µM
- GI50 [42]: 2.17 µM
- TGI [42]: 9.36 µM
- GI50 [43]: 2.84 µM
- TGI [43]: 24.3 µM
- GI50 [44]: 1.96 µM
- TGI [44]: 4.87 µM
- GI50 [45]: 3.48 µM
- TGI [45]: 14.1 µM
- GI50 [7]: 20.2 µM
- TGI [7]: 81.4 µM
- GI50 [46]: 3.12 µM
- TGI [46]: 14.5 µM
- GI50 [47]: 3.2 µM
- TGI [47]: 14.9 µM
- GI50 [8]: 1.94 µM
- TGI [8]: 8.44 µM
- GI50 [48]: 3.65 µM
- TGI [48]: 17.2 µM
- GI50 [9]: 8.19 µM
- TGI [9]: 72.5 µM
- GI50 [10]: 2.79 µM
- TGI [10]: 46.8 µM
- GI50 [49]: 2.44 µM
- TGI [49]: 24.2 µM
- GI50 [50]: 3.39 µM
- TGI [50]: 18.9 µM
- GI50 [51]: 4.51 µM
- TGI [51]: 28.3 µM
- GI50 [52]: 1.92 µM
- TGI [52]: 5.47 µM
- GI50 [53]: 2 µM
- TGI [53]: 7.27 µM
- GI50 [54]: 2.36 µM
- TGI [54]: 14.4 µM
- GI50 [55]: 2.15 µM
- TGI [55]: 7.76 µM
- GI50 [56]: 2.53 µM
- TGI [56]: 10.3 µM
- GI50 [57]: 3.25 µM
- TGI [57]: > 100 µM
